# Measurements published in ChEMBL document CHEMBL4138123, “Design, synthesis and biological evaluation of novel pyrazolochalcones as potential modulators of PI3K/Akt/mTOR pathway and inducers of apoptosis in breast cancer cells” (Eur J Med Chem, 2017).
# What was measured:
# Format in all cases: functional
# OVCAR-3 [1] = experiment: Cytotoxicity against human OVCAR3 cells assessed as cell growth at 0.01 uM after 48 hrs by sulforhodamine B assay relative to control; settings: OVCAR-3, 48 h, read-out: Activity
# SN12C = experiment: Cytotoxicity against human SN12C cells assessed as growth inhibition after 48 hrs by sulforhodamine B assay
# NCI-H322M = experiment: Cytotoxicity against human NCI-H322M cells assessed as cell growth at 10 uM after 48 hrs by sulforhodamine B assay relative to control; settings: read-out: Activity
# OVCAR-4 = experiment: Cytotoxicity against human OVCAR4 cells assessed as cell growth at 0.1 uM after 48 hrs by sulforhodamine B assay relative to control; settings: OVCAR-4, 48 h, read-out: Activity
# T47D = experiment: Cytotoxicity against human T47D cells assessed as cell growth at 10 uM after 48 hrs by sulforhodamine B assay relative to control; settings: read-out: Activity
# RPMI-8226 [2] = experiment: Cytotoxicity against human RPMI8226 cells assessed as cell growth at 100 uM after 48 hrs by sulforhodamine B assay relative to control; settings: RPMI-8226, 48 h, read-out: Activity
# NCI/ADR-RES = experiment: Cytotoxicity against human NCI/ADR-RES cells assessed as cell growth at 0.01 uM after 48 hrs by sulforhodamine B assay relative to control; settings: read-out: Activity
# SK-OV-3 [3] = experiment: Cytotoxicity against human SKOV3 cells assessed as cell growth at 10 uM after 48 hrs by sulforhodamine B assay relative to control; settings: SK-OV-3, 48 h, read-out: Activity
# UACC-62 [4] = experiment: Cytotoxicity against human UACC62 cells assessed as cell growth at 0.1 uM after 48 hrs by sulforhodamine B assay relative to control; settings: UACC-62, 48 h, read-out: Activity
# TK-10 = experiment: Cytotoxicity against human TK10 cells assessed as cell growth at 100 uM after 48 hrs by sulforhodamine B assay relative to control; settings: TK-10, 48 h, read-out: Activity
# OVCAR-5 = experiment: Cytotoxicity against human OVCAR5 cells assessed as cell growth at 1 uM after 48 hrs by sulforhodamine B assay relative to control; settings: OVCAR-5, 48 h, read-out: Activity
# DU-145 = experiment: Cytotoxicity against human DU145 cells assessed as cell growth at 0.1 uM after 48 hrs by sulforhodamine B assay relative to control; settings: DU-145, 48 h, read-out: Activity
# OVCAR-3 [5] = experiment: Cytotoxicity against human OVCAR3 cells assessed as cell growth at 10 uM after 48 hrs by sulforhodamine B assay relative to control; settings: OVCAR-3, 48 h, read-out: Activity
# NCI-H226 = experiment: Cytotoxicity against human NCI-H226 cells assessed as cell growth at 1 uM after 48 hrs by sulforhodamine B assay relative to control; settings: NCI-H226, 48 h, read-out: Activity
# M14 = experiment: Cytotoxicity against human M14 cells assessed as cell growth at 1 uM after 48 hrs by sulforhodamine B assay relative to control; settings: M14, 48 h, read-out: Activity
# Hs-578T = experiment: Cytotoxicity against human Hs 578T cells assessed as growth inhibition after 48 hrs by sulforhodamine B assay
# UO-31 = experiment: Cytotoxicity against human UO31 cells assessed as cell growth at 10 uM after 48 hrs by sulforhodamine B assay relative to control; settings: UO-31, 48 h, read-out: Activity
# HL-60(TB) = experiment: Cytotoxicity against human HL-60(TB) cells assessed as cell growth at 0.1 uM after 48 hrs by sulforhodamine B assay relative to control; settings: HL-60, 48 h, read-out: Activity
# BT-549 = experiment: Cytotoxicity against human BT549 cells assessed as cell growth at 10 uM after 48 hrs by sulforhodamine B assay relative to control; settings: BT-549, 48 h, read-out: Activity
# KM12 [6] = experiment: Cytotoxicity against human KM12 cells assessed as growth inhibition after 48 hrs by sulforhodamine B assay; settings: KM12, 48 h
# 786-0 = experiment: Cytotoxicity against human 786-0 cells assessed as cell growth at 1 uM after 48 hrs by sulforhodamine B assay relative to control; settings: 786-0, 48 h, read-out: Activity
# UACC-257 [7] = experiment: Cytotoxicity against human UACC257 cells assessed as cell growth at 0.1 uM after 48 hrs by sulforhodamine B assay relative to control; settings: UACC-257, 48 h, read-out: Activity
# UACC-62 [8] = experiment: Cytotoxicity against human UACC62 cells assessed as cell growth at 100 uM after 48 hrs by sulforhodamine B assay relative to control; settings: UACC-62, 48 h, read-out: Activity
# SK-MEL-5 = experiment: Cytotoxicity against human SK-MEL-5 cells assessed as cell growth at 100 uM after 48 hrs by sulforhodamine B assay relative to control; settings: SK-MEL-5, 48 h, read-out: Activity
# HCC 2998 [9] = experiment: Cytotoxicity against human HCC2998 cells assessed as cell growth at 1 uM after 48 hrs by sulforhodamine B assay relative to control; settings: HCC 2998, 48 h, read-out: Activity
# SK-OV-3 [10] = experiment: Cytotoxicity against human SKOV3 cells assessed as cell growth at 1 uM after 48 hrs by sulforhodamine B assay relative to control; settings: SK-OV-3, 48 h, read-out: Activity
# SK-MEL-28 = experiment: Cytotoxicity against human SK-MEL-28 cells assessed as cell growth at 100 uM after 48 hrs by sulforhodamine B assay relative to control; settings: SK-MEL-28, 48 h, read-out: Activity
# RPMI-8226 [11] = experiment: Cytotoxicity against human RPMI8226 cells assessed as cell growth at 1 uM after 48 hrs by sulforhodamine B assay relative to control; settings: RPMI-8226, 48 h, read-out: Activity
# UACC-257 [12] = experiment: Cytotoxicity against human UACC257 cells assessed as cell growth at 1 uM after 48 hrs by sulforhodamine B assay relative to control; settings: UACC-257, 48 h, read-out: Activity
# PC-3 = experiment: Cytotoxicity against human PC3 cells assessed as cell growth at 10 uM after 48 hrs by sulforhodamine B assay relative to control; settings: PC-3, 48 h, read-out: Activity
# SF-539 = experiment: Cytotoxicity against human SF539 cells assessed as cell growth at 100 uM after 48 hrs by sulforhodamine B assay relative to control; settings: SF-539, 48 h, read-out: Activity
# K562 = experiment: Cytotoxicity against human K562 cells assessed as cell growth at 10 uM after 48 hrs by sulforhodamine B assay relative to control; settings: K562, 48 h, read-out: Activity
# UACC-257 [13] = experiment: Cytotoxicity against human UACC257 cells assessed as cell growth at 10 uM after 48 hrs by sulforhodamine B assay relative to control; settings: UACC-257, 48 h, read-out: Activity
# KM12 [14] = experiment: Cytotoxicity against human KM12 cells assessed as cell growth at 100 uM after 48 hrs by sulforhodamine B assay relative to control; settings: KM12, 48 h, read-out: Activity
# OVCAR-3 [15] = experiment: Cytotoxicity against human OVCAR3 cells assessed as cell growth at 100 uM after 48 hrs by sulforhodamine B assay relative to control; settings: OVCAR-3, 48 h, read-out: Activity
# HCC 2998 [16] = experiment: Cytotoxicity against human HCC2998 cells assessed as cell growth at 0.1 uM after 48 hrs by sulforhodamine B assay relative to control; settings: HCC 2998, 48 h, read-out: Activity
smiles,measurement,setting,value
COc1ccc(C(=O)/C=C/c2cc(-c3ccc(OC)c(OC)c3)n[nH]2)cc1OC,growth at 0.01 µM,OVCAR-3 [1],107%
same,GI50,SN12C,1.92 µM
same,TGI,SN12C,4.82 µM
same,growth at 10 µM,NCI-H322M,-9%
same,growth at 0.1 µM,OVCAR-4,86%
same,growth at 10 µM,T47D,-13%
same,growth at 100 µM,RPMI-8226 [2],-38%
same,growth at 0.01 µM,NCI/ADR-RES,104%
same,growth at 10 µM,SK-OV-3 [3],9%
same,growth at 0.1 µM,UACC-62 [4],96%
same,growth at 100 µM,TK-10,-12%
same,growth at 1 µM,OVCAR-5,76%
same,growth at 0.1 µM,DU-145,105%
same,growth at 10 µM,OVCAR-3 [5],-43%
same,growth at 1 µM,NCI-H226,77%
same,growth at 1 µM,M14,92%
same,GI50,Hs-578T,3.76 µM
same,TGI,Hs-578T,> 100 µM
same,growth at 10 µM,UO-31,-52%
same,growth at 0.1 µM,HL-60(TB),101%
same,growth at 10 µM,BT-549,-87%
same,GI50,KM12 [6],0.625 µM
same,TGI,KM12 [6],2.08 µM
same,growth at 1 µM,786-0,78%
same,growth at 0.1 µM,UACC-257 [7],94%
same,growth at 100 µM,UACC-62 [8],-49%
same,growth at 100 µM,SK-MEL-5,-96%
same,growth at 1 µM,HCC 2998 [9],95%
same,growth at 1 µM,SK-OV-3 [10],90%
same,growth at 100 µM,SK-MEL-28,-32%
same,growth at 1 µM,RPMI-8226 [11],17%
same,growth at 1 µM,UACC-257 [12],96%
same,growth at 10 µM,PC-3,5%
same,growth at 100 µM,SF-539,-83%
same,growth at 10 µM,K562,3%
same,growth at 10 µM,UACC-257 [13],-41%
same,growth at 100 µM,KM12 [14],-74%
same,growth at 100 µM,OVCAR-3 [15],-64%
same,growth at 0.1 µM,HCC 2998 [16],101%
COc1ccc(-c2cc(/C=C/C(=O)c3ccc(N)cc3)[nH]n2)cc1OC,growth at 0.01 µM,OVCAR-3 [1],106%
same,GI50,SN12C,3.53 µM
same,LC50,SN12C,41.3 µM
same,TGI,SN12C,13.7 µM
same,growth at 10 µM,NCI-H322M,24%
same,growth at 0.1 µM,OVCAR-4,90%
same,growth at 10 µM,T47D,28%
same,growth at 100 µM,RPMI-8226 [2],-40%
same,growth at 0.01 µM,NCI/ADR-RES,102%
same,growth at 10 µM,SK-OV-3 [3],29%
same,growth at 0.1 µM,UACC-62 [4],94%
same,growth at 100 µM,TK-10,-98%
same,growth at 1 µM,OVCAR-5,94%
same,growth at 0.1 µM,DU-145,110%
same,growth at 10 µM,OVCAR-3 [5],-56%
same,growth at 1 µM,NCI-H226,86%
same,growth at 1 µM,M14,101%
same,GI50,Hs-578T,6.57 µM
same,LC50,Hs-578T,> 100 µM
same,TGI,Hs-578T,> 100 µM
same,growth at 10 µM,UO-31,11%
same,growth at 0.1 µM,HL-60(TB),104%
same,growth at 10 µM,BT-549,-91%
same,GI50,KM12 [6],1.68 µM
same,LC50,KM12 [6],6.67 µM
same,TGI,KM12 [6],3.35 µM
same,growth at 1 µM,786-0,87%
same,growth at 0.1 µM,UACC-257 [7],90%
same,growth at 100 µM,UACC-62 [8],-86%
same,growth at 100 µM,SK-MEL-5,-94%
same,growth at 1 µM,HCC 2998 [9],105%
same,growth at 1 µM,SK-OV-3 [10],97%
same,growth at 100 µM,SK-MEL-28,-93%
same,growth at 1 µM,RPMI-8226 [11],59%
same,growth at 1 µM,UACC-257 [12],96%
same,growth at 10 µM,PC-3,20%
same,growth at 100 µM,SF-539,-92%
same,growth at 10 µM,K562,3%
same,growth at 10 µM,UACC-257 [13],39%
same,growth at 100 µM,KM12 [14],-98%
same,growth at 100 µM,OVCAR-3 [15],-99%
same,growth at 0.1 µM,HCC 2998 [16],100%
